According to US7517654B2, “Peptide and a derivative thereof promoting cell adhesion and spreading” (Seoul National University Industry Foundation, priority 2004, dated 2009):

Assays:
Assay type in all cases: cell-based, human
NHEF = assay: Cell proliferation on coated plates, viable cell count by trypan blue exclusion; conditions: peptide P4 20 μg/12-well plate; 1-4 days; compared with PS-coated plate
From the text: Normal human […] (NHEF) were taken from foreskin tissue of healthy 1- to 3-year-old people, and washed three times with calcium- and magnesium-free Hanks balanced salt solution containing 3× antibiotics (CMF-HBSS; GibcoBRL), and prepared by explant culture. When cell density was about 80%, NHEFs were divided by the ratio of 1:3 and cultured until cell density reached about 80%. […] were subcultured 4 times the same way as the above and used.
(§1) Polystyrene (PS), BSA (bovine serum albumin) and synthetic peptide P4 were coated on […]. NHEK (PD 13.0; 2×10^4 cells/12-well plate) and NHEF (passage number 4) cultures were added to the 12-well plate coated with the polystyrene (PS), BSA (1%) and synthetic peptide P4 (20 μg/12-well plate), and cultured for 1, 2, 3, or 4 days. Viable cells were counted by trypan blue exclusion in a hemocytometer. Data are expressed as mean ±SD (n=4).

HOK-16B cells [1] = assay: Competition of soluble peptides for HOK-16B cell adhesion to rLG3-coated plates; conditions: HOK-16B cells preincubated 30 min with 100 μg/ml peptide, control without peptide = 100%
Procedure: To identify the receptor of the HOK-16B cells for rLG3 protein and peptide P4, 5 μg/ml of mAbs to different types of integrins or 5 mM EDTA were preincubated individually with HOK-16B cells in 0.5 ml incubation solution (2×10^5 cells/ml) for 30 min at 37° C. The preincubated cells were then transferred onto plates precoated with either 25 μg/ml of rLG3 protein or 10 μg/well of peptide P4 and incubated for 1 h at 37° C. Attached cells were then quantified by the cell adhesion assay described above in the Experimental Example 2, and cell adhesion activity inhibition rate were measured.
Accordingly, the inventors examined the ability of peptide P4 to compete for cell adhesion activity to rLG3 domain by the method of Experimental Example 4. First, the purified rLG3 proteins (25 μg/well) were coated onto 24-well plates. HOK-16B cells were preincubated with the various peptides (100 μg/ml) or without the peptide for 30 min at 37° C. The preincubated cells were then added to rLG3-coated plates and cultured for 1 h in serum-free medium. The unbound cells were washed off and the adherent cells were fixed and stained with crystal violet. The average adhesion activity of the control cultures (HOK-16B cells preincubated without peptide) was considered 100%, the results are expressed as mean ±SD of the four independent experiments.

HOK-16B cells [2] = assay: Cell adhesion assay on coated plates (crystal violet absorbance at 570 nm / cell counting)
Procedure: The cell adhesion assay was performed according to a method reported by Okazaki et al. (J. Biol. Chem., 277:37070, 2002). In detail, 24-well culture plates (Nunc, Roskilde, Denmark) were coated with various amounts of rLG proteins at 4° C. overnight. The peptides were also coated on plates by drying overnight. The substrate-coated on the plates were blocked by adding 1% heat-inactivated bovine serum albumin (BSA) in PBS for 1 h at 37° C. and washed twice with PBS. The cells in the Experimental Example 1, detached by 0.05% tyrpsin and 0.53 mM EDTA in PBS and resuspended in culture media, were added (1×10^5 cells/500 μl) to each plate and incubated for 1 h at 37° C. After incubation, unattached cells were removed by rinsing twice with PBS. The attached cells were fixed with 10% formalin in PBS for 15 min, rinsed twice with PBS, and stained with 0.5% crystal violet for 1 h. The plates were gently rinsed with DDW three times and lysed with 2% SDS for 5 min. Absorbance was measured at 570 nm in a Bio-Rad Model 550 microplate reader (BioRad).
The cell adhesion and spreading activities on peptide-coated plates were examined using HOK-16B cells by the same method as Experimental Example 2. 24-well plates were coated with 10, 20, 30, 40 and 50 μg/well peptides P1 to P5, respectively. HOK-16B cells were added to peptide-coated plates and cultured for 1 h in serum-free medium for 1 hr. After the unbound cells were washed off, adherent cells were fixed and stained with crystal violet, and then the stained cells were analyzed. Absorbance was measured at 570 nm in a microplate reader. BSA and the rLG3 were used as negative control and positive control, respectively.
It was observed that peptide P4 promotes strong cell adhesion and spreading activities and binds to integrin α3β1 in the Example 4. Therefore, to determine the biologically active core sequences in peptide P4, five synthetic peptides (P4 D-I to P4 D-V), which are C-terminal truncated peptides from the peptide P4, and six synthetic peptides (P4 D-N1 to P4 D-N6), which are N-terminal truncated peptides from the peptide P4 were prepared (FIG. 6A) and examined for HOK-16B cell adhesion and spreading activities on peptide-coated plates by the present inventors. 24-well plates were coated with 10 μg/well C-terminal truncated peptides or N-terminal truncated peptides, and HOK-16B cells were added to the plates, and then cultured in serum-free medium for 1 hr. After the unbound cells were washed off, the adherent cells were fixed to stain with crystal violet, and the stained cells were analyzed. Absorbance was measured at 570 nm in a microplate reader. Peptide P4 and BSA were used as the positive and negative controls, respectively.
24-well plates were coated with 10 μg/well peptides, and HOK-16B cells were added to the plates, and then cultured in serum-free medium for 1 hr. After the unbound cells were washed off, the adherent cells were fixed to stain with crystal violet, and the stained cells were analyzed. Peptide P4 and BSA were used as the positive and negative controls, respectively. The results were expressed as mean ±SD of the four independent experiments.

NHEK = assay: Cell proliferation on coated plates, viable cell count by trypan blue exclusion; conditions: peptide P4 20 μg/12-well plate; 1-4 days; compared with PS-coated plate
Procedure: Normal human epidermal keratinocytes (NHEK) tissue samples were prepared from foreskin tissue of healthy 1- to 3-year-old people. The tissue samples were washed three times with calcium- and magnesium-free Hanks balanced salt solution containing 3× antibiotics (CMF-HBSS; GibcoBRL), and added with CMF-HBSS containing collgenase (collgenase type II, 1.0 mg/ml; sigma Chemical Co.) and dispase (dispase grade II, 2.4 mg/ml; Boeringer-Mannheim) to isolate epithelial layer from epidermal tissue, and then, cultured in 95% air and 5% CO2 at 37° C. for 90 min. NHEKs were prepared from the isolated epidermal tissue, and cultured in epithelial cell medium containing 0.15 mM calcium and growth factor bullet kit (KGM; Clonetics Corp.). When cell density was about 70%, NHEKs were divided into 1×10^5 cells per 60-mm petri dish and cultured until cell density reached about 70%. NHEKs were subcultured two times the same way as the above and used.
as §1

PPFLMLLKGSTR [peptide P4]
increase in the number of NHEFs according to cell proliferation (NHEF): similar | inhibition of cell adhesion to rLG3 (HOK-16B cells [1]): approximately 51% | coating concentration at which maximum cell adhesion was obtained (HOK-16B cells [2]; HOK-16B cells, peptide-coated 24-well plates): ≥ 10 μg/well | cell adhesion activity of synthetic peptides (HOK-16B cells [2]; HOK-16B cells, plates coated with 10-50 μg/well peptide, 1 h, serum-free medium): strong dose-dependent cell adhesion activity | increase in the number of NHEKs according to cell proliferation (NHEK): increased more than that on PS-coated plate

B1: rLG3: recombinant His6-tagged LG3 domain, residues 1128-1364 of human laminin α3 chain (protein, listed as Homo sapiens)
chain: VRLNDTVGVTKKCSEDWKLVRSASFSRGGQLSFTDLGLPPTDHLQASFGFQTFQPSGILLDHQTWTRNLQVTLEDGYIELSTSDSGGPIFKSPQTYMDGLLHYVSVISDNSGLRLLIDDQLLRNSKRLKHISSSRQSLRLGGSNFEGCISNVFVQRLSLSPEVLDLTSNSLKRDVSLGGCSLNKPPFLMLLKGSTRFNKTKTFRINQLLQDTPVASPRSVKVWQDACSPLPKTQANH
modifications: His6 tag
notes: recombinant His6-tagged LG3 domain, residues 1128-1364 of human laminin α3 chain
reduction of the level of cell adhesion compared to the 5 μg/ml laminin-coated control (HOK-16B cells [2]; 50 μg/ml rLG3 protein coating): approximately 45% | cell adhesion activity of rLG proteins (HOK-16B cells [2]; HOK-16B cells on rLG protein-coated plates, 1 h, compared to BSA control): exhibited the adhesive activity | coating concentration at which maximum adhesion occurs (HOK-16B cells [2]; HOK-16B cells, rLG protein-coated plates): 25 µg/mL
